Measured values published in ChEMBL document CHEMBL3132769, “Fragment growing to retain or alter the selectivity of anchored kinase hinge-binding fragments” (Medchemcomm, 2014).

Experiments:
[1] = biological target: T1, Serine/threonine-protein kinase BRSK1 (Homo sapiens) (UniProt Q8TDC3); test: Inhibition of human full length BRSK1 expressed in baculovirus assessed as substrate phosphorylation using fluorescence-labelled peptides as substrate at 0.2 uM after 90 mins by microfluidic peptide phosphorylation assay
T1 sequence (whole entry): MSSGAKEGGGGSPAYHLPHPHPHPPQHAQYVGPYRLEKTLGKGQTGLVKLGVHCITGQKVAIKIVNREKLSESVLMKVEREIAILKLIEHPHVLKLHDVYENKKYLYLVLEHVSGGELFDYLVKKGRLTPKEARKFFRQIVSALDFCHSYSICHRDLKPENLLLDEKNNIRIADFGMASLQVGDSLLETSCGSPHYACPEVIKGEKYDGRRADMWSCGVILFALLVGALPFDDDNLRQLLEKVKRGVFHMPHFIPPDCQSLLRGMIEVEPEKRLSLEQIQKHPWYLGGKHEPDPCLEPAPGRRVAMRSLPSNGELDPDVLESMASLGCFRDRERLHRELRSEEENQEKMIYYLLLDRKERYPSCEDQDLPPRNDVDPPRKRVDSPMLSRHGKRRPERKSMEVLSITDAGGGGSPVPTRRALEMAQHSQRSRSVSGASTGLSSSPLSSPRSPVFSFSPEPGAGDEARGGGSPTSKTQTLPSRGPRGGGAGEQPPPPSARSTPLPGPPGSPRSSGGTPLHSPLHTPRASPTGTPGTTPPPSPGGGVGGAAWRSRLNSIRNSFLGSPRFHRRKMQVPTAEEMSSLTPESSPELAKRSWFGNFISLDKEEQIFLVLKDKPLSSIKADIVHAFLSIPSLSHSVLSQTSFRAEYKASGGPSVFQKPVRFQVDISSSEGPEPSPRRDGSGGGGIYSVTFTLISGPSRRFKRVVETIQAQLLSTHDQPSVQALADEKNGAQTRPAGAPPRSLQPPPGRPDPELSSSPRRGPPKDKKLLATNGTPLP

[2] = biological target: T2, Aurora kinase C (Homo sapiens) (UniProt Q9UQB9); test: Inhibition of human full length AurC expressed in baculovirus assessed as substrate phosphorylation using fluorescence-labelled peptides as substrate at 0.1 uM after 90 mins by microfluidic peptide phosphorylation assay
T2 sequence (whole entry): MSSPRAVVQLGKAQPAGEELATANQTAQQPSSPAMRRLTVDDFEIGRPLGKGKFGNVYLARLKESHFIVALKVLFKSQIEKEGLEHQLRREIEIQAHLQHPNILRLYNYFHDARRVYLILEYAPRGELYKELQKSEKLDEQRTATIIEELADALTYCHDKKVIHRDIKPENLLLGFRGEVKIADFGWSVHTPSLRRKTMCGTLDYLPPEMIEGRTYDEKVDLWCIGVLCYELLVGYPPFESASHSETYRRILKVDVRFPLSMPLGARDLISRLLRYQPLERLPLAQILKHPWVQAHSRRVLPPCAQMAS

[3] = biological target: Receptor-type tyrosine-protein kinase FLT3 (Homo sapiens) (UniProt P36888); test: Inhibition of human FLT3 catalytic domain expressed in baculovirus assessed as substrate phosphorylation using fluorescence-labelled peptides as substrate at 70 uM after 90 mins by microfluidic peptide phosphorylation assay
[4] = biological target: Tyrosine-protein kinase Lck (Homo sapiens) (UniProt P06239); test: Inhibition of human full length LCK expressed in baculovirus assessed as substrate phosphorylation using fluorescence-labelled peptides as substrate at 95 uM after 90 mins by microfluidic peptide phosphorylation assay
[5] = biological target: Epidermal growth factor receptor (Homo sapiens) (UniProt P00533); test: Inhibition of human EGFR catalytic domain expressed in baculovirus assessed as substrate phosphorylation using fluorescence-labelled peptides as substrate at 8 uM after 90 mins by microfluidic peptide phosphorylation assay
[6] = tested on: Tyrosine-protein kinase ABL1 (Homo sapiens), P00519 [T315I]; test: Inhibition of human truncated ABL T315I mutant expressed in baculovirus assessed as substrate phosphorylation using fluorescence-labelled peptides as substrate at 1000 uM after 90 mins by microfluidic peptide phosphorylation assay
[7] = biological target: Ribosomal protein S6 kinase alpha-1 (Homo sapiens) (UniProt Q15418); test: Inhibition of human full length RSK1 expressed in baculovirus assessed as substrate phosphorylation using fluorescence-labelled peptides as substrate at 1000 uM after 90 mins by microfluidic peptide phosphorylation assay
[8] = biological target: T3, Inhibitor of nuclear factor kappa-B kinase subunit beta (Homo sapiens) (UniProt O14920); test: Inhibition of human full length IKK beta expressed in baculovirus assessed as substrate phosphorylation using fluorescence-labelled peptides as substrate at 2 uM after 90 mins by microfluidic peptide phosphorylation assay
T3 sequence (whole entry): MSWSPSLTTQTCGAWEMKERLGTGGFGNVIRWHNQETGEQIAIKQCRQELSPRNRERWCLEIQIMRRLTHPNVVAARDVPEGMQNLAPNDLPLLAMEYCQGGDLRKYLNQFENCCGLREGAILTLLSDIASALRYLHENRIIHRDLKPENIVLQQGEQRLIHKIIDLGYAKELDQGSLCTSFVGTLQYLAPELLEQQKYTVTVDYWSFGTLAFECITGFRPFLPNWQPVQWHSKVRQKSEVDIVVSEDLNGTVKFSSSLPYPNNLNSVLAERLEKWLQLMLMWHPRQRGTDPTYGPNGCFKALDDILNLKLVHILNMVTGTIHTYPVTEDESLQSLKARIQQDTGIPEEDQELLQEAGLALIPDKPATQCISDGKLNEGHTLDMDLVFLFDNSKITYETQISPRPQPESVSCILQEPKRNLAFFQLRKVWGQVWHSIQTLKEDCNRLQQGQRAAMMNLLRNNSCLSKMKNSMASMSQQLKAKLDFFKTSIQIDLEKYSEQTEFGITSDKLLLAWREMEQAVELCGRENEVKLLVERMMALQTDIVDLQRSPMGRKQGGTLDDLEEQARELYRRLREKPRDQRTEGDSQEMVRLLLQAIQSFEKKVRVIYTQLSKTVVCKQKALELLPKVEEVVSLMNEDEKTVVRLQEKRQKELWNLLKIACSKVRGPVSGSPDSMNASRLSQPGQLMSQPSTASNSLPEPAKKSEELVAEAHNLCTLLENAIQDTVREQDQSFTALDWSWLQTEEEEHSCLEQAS

Receptor-type tyrosine-protein kinase FLT3 (Homo sapiens), sequence (P36888 whole entry, the tested form may be a part): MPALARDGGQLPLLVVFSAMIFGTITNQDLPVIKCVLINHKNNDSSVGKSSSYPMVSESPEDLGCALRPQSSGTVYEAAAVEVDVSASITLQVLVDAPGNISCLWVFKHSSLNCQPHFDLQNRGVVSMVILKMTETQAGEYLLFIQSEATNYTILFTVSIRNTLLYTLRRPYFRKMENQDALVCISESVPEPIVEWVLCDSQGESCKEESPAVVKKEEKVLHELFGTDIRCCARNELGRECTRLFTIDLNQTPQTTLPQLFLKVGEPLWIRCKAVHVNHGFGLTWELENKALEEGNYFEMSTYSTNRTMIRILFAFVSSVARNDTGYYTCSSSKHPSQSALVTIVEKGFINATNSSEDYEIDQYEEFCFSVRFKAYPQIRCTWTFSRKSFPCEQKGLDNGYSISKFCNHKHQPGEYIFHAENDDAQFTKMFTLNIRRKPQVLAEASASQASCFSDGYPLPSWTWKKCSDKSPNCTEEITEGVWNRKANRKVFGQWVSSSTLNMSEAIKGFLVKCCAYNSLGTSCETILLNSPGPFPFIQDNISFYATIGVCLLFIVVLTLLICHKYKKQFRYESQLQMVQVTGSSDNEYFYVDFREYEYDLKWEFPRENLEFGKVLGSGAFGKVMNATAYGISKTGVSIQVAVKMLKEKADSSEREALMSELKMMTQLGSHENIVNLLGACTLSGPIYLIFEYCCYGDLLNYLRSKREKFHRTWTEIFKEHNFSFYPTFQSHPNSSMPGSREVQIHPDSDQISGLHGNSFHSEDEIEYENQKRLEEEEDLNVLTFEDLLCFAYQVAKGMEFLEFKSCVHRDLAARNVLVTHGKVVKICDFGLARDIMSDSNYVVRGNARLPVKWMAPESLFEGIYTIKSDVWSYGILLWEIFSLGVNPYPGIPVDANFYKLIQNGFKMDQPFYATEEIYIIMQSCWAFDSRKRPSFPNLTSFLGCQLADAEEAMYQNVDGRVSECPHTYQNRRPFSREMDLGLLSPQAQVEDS
Ribosomal protein S6 kinase alpha-1 (Homo sapiens), sequence (Q15418 whole entry): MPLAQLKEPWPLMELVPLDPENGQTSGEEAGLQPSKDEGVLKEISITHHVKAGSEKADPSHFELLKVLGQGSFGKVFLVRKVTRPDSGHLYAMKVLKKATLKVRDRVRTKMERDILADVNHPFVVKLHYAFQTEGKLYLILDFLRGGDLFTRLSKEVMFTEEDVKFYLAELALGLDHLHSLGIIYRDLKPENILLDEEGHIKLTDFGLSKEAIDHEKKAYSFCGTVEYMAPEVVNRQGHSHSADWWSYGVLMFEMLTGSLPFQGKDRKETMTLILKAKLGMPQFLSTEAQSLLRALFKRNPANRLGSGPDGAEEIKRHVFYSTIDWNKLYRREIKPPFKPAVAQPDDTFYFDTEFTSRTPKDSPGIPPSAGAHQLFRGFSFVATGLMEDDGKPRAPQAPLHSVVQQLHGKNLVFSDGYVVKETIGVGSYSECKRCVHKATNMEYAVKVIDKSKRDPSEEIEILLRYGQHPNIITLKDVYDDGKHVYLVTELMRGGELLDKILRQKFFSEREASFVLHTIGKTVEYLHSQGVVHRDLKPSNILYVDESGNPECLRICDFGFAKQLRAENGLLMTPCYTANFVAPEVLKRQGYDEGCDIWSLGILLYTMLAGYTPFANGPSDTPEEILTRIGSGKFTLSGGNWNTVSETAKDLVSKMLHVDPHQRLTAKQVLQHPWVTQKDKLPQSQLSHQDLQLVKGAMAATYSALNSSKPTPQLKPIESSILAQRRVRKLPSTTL
Epidermal growth factor receptor (Homo sapiens), sequence (P00533 whole entry, the tested form may be a part): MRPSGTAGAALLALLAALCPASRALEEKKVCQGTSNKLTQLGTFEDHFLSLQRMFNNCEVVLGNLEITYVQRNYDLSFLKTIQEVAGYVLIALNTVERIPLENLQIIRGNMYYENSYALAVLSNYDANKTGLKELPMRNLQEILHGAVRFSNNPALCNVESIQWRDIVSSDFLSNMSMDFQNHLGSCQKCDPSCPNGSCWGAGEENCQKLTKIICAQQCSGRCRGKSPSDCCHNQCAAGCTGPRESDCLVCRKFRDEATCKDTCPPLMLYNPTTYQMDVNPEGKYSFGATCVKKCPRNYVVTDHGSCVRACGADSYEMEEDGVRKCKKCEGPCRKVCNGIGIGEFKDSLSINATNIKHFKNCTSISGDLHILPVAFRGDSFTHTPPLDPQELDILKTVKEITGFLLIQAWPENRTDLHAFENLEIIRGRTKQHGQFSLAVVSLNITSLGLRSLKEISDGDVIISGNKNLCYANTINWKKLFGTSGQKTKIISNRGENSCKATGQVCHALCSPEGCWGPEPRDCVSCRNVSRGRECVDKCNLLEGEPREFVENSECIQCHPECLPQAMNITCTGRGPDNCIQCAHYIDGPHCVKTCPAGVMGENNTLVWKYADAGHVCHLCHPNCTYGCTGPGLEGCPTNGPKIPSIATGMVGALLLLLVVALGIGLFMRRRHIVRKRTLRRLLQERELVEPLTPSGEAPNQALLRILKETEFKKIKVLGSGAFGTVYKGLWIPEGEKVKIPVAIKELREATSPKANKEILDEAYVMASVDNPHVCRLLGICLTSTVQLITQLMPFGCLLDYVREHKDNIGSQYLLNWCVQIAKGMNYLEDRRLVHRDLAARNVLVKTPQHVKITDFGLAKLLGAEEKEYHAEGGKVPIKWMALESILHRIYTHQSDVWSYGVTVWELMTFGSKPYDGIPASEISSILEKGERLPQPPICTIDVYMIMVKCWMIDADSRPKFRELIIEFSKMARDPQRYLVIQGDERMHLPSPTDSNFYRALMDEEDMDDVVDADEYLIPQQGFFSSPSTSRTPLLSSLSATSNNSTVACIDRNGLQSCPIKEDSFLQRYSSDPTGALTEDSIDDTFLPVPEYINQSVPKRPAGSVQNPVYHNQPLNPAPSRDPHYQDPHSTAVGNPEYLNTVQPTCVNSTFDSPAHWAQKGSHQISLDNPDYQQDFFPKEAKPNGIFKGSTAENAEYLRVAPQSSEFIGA
Tyrosine-protein kinase Lck (Homo sapiens), sequence (P06239 2-509 limits assumed): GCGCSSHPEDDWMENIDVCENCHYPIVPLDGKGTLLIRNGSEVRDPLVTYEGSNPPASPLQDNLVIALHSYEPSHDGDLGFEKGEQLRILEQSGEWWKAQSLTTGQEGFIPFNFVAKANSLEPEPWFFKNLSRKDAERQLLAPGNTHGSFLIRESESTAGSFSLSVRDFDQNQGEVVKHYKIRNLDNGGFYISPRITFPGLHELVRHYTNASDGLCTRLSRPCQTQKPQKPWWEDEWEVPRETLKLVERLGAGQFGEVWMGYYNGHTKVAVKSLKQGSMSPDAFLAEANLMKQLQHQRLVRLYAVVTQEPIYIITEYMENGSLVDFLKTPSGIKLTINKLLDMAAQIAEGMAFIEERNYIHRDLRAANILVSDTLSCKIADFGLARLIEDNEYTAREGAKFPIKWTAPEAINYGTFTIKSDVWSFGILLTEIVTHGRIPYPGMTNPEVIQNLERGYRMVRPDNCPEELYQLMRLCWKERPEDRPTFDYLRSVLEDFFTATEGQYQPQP

Clc1ccc(C2(c3ccc(-c4ncnc5[nH]cnc45)cc3)CCNCC2)cc1
inhibition [1]: 11%

C[C@H](CN(C)C)Oc1nc(Nc2cc3cccc(Cl)c3cn2)cnc1C#N
inhibition [2]: 1%

CNCc1ccc(-c2ncnc3[nH]cnc23)cc1
inhibition [3]: 36%

NCCc1ccc(-c2ncnc3[nH]cnc23)cc1
inhibition [4]: 68.5%

NCC1CCN(c2ncnc3[nH]ccc23)CC1
inhibition [5]: 33%

c1cnc2[nH]ccc2c1
inhibition [6]: 58% | inhibition [7]: 60.5%

NC1CCN(c2ncnc3[nH]ccc23)CC1
inhibition [8]: 1%
